As to `O=C1Nc2ccc([N+](=O)[O-])cc2/C1=C(/Nc1ccc(CN2CCCCC2)cc1)c1ccc(C(F)(F)F)cc1` [Example 442, (Z)-3-[1-(4-piperidinomethyl-phenylamino)-1-(4-trifluoromethyl-phenyl)-methylidene]-5-nitro-2-indolinone], the melting point (commonly the temperature, or range, at which the solid turns liquid) was in the range of 300 to 302 °C.

For `CN(Cc1ccc(N/C(=C2\C(=O)Nc3ccc([N+](=O)[O-])cc32)c2ccccc2)cc1)C1CCCCC1` [Example 232, (Z)-3-{1-[4-(N-cyclohexyl-N-methyl-aminomethyl)-phenylamino]-1-phenyl-methylidene}-5-nitro-2-indolinone], the melting point amounted to 215 °C.

As for `CCS(=O)(=O)N(CCN(C)C)c1ccc(N/C(=C2\C(=O)Nc3ccccc32)c2ccccc2)cc1` [Example 307, (Z)-3-{1-[4-(N-(2-dimethylaminoethyl)-N-ethylsulphonyl-amino)-phenylamino]-1-phenyl-methylidene}-2-indolinone], the melting point was 245 °C.

On to `O=C1Nc2ccc([N+](=O)[O-])cc2/C1=C(/Nc1ccc(CCN2CC=CCC2)cc1)c1ccccc1` [Example 269, (Z)-3-{1-[4-(2-(3,6-Dihydro-2H-pyridin-1-yl)-ethyl)-phenylamino]-1-phenyl-methylidene}-5-nitro-2-indolinone], for which the melting point was 249 to 254 °C (dec.).

As for `CC(C)(C)OC(=O)Nc1ccc(N/C(=C2\C(=O)Nc3ccc([N+](=O)[O-])cc32)c2ccccc2)cc1` [Example 90, (Z)-3-[1-(4-tert.butoxycarbonylamino-phenylamino)-1-phenyl-methylidene]-5-nitro-2-indolinone], the melting point was 235 to 237 °C (dec.).

`O=C1Nc2ccc([N+](=O)[O-])cc2/C1=C(/Nc1ccc(CCN2CCC(O)CC2)cc1)c1ccccc1` [Example 260, (Z)-3-{1-[4-(2-(4-hydroxypiperidino)-ethyl)-phenylamino]-1-phenyl-methylidene}-5-nitro-2-indolinone] showed a melting point of 274 to 276 °C.

`O=C1Nc2ccc([N+](=O)[O-])cc2/C1=C(/Nc1ccc(CN2CC[S+]([O-])CC2)cc1)c1ccccc1` [Example 230, (Z)-3-{1-[4-((1-oxothiomorpholino)-methyl)-phenylamino]-1-phenyl-methylidene}-5-nitro-2-indolinone] yielded a melting point of 289 to 290 °C.

For the molecule `CCOC(=O)CN(c1cccc(N/C(=C2\C(=O)Nc3ccccc32)c2ccccc2)c1)S(C)(=O)=O` [Example 317, (Z)-3-{1-[3-(N-ethoxycarbonylmethyl-N-methylsulphonyl-amino)-phenylamino]-1-phenyl-methylidene}-2-indolinone], the melting point lay within 188 to 190 °C.

Molecule `O=C1Nc2ccc([N+](=O)[O-])cc2/C1=C(/Nc1ccc(Br)cc1)c1ccc(Cn2ccnc2)cc1` [Example 438, (Z)-3-{1-[4-Bromophenylamino]-1-[4-(imidazol-1-ylmethyl)-phenyl]-methylidene}-5-nitro-2-indolinone] gave a melting point of 260 to 265 °C.

Turning to `O=CNc1cccc(N/C(=C2\C(=O)Nc3ccccc32)c2ccccc2)c1` [Example 30, (Z)-3-[1-(3-formylamino-phenylamino)-1-phenyl-methylidene]-2-indolinone], the melting point stood at 231 °C.

Regarding `CC(=O)O.N=C(N)c1ccc(N/C(=C2\C(=O)Nc3ccccc32)c2ccccc2)cc1` [Example 62, (Z)-3-{1-[N-(4-amidinophenyl)-amino]-1-phenyl-methylidene}-2-indolinone-hydroacetate], the melting point is > 260 °C (dec.).

`CN(C)CC(=O)Nc1ccc(N/C(=C2\C(=O)Nc3ccccc32)c2ccccc2)cc1` [Example 41, (Z)-3-[1-(4-dimethylaminomethylcarbonylamino-phenylamino)-1-phenyl-methylidene]-2-indolinone] registered a melting point of 234 to 236 °C.

Molecule `CN(C)CCNc1ccc(N/C(=C2\C(=O)Nc3ccc([N+](=O)[O-])cc32)c2ccccc2)cc1` [Example 326, (Z)-3-{1-[4-(2-dimethylamino-ethylamino)-phenylamino]-1-phenyl-methylidene}-5-nitro-2-indolinone] registered a melting point of 227 to 229 °C.

With `CN(C)CCN(C)C(=O)c1ccc(N/C(=C2\C(=O)Nc3ccccc32)c2ccccc2)cc1` [Example 391, (Z)-3-{1-[4-(N-(2-dimethylaminoethyl)-N-methyl-aminocarbonyl)-phenylamino]-1-phenyl-methylidene}-2-indolinone], the melting point was 181 to 183 °C.

`O=C1Nc2ccc([N+](=O)[O-])cc2/C1=C(/Nc1ccc(N2CCOCC2)cc1)c1ccccc1` [Example 80, (Z)-3-[1-(4-morpholinophenylamino)-1-phenyl-methylidene]-5-nitro-2-indolinone] gave a melting point of more than 300 °C.

For `CC(=O)N1C(=O)/C(=C(\Nc2ccc(CNC(=O)OC(C)(C)C)cc2)c2ccc(CN3C(=O)c4ccccc4C3=O)cc2)c2cc([N+](=O)[O-])ccc21` [Example 146, (Z)-3-[1-(4-tert.butoxycarbonylaminomethyl-phenylamino)-1-(4-phthalimidomethyl-phenyl)-methylidene]-1-acetyl-5-nitro-2-indolinone], the melting point is 125 °C (dec.).

`CCNCc1ccc(N/C(=C2\C(=O)Nc3ccc([N+](=O)[O-])cc32)c2ccccc2)cc1` [Example 160, (Z)-3-[1-(4-ethylaminomethyl-phenylamino)-1-phenyl-methylidene]-5-nitro-2-indolinone] had a melting point of 220 to 223 °C.

In turn, `CCCC(=O)N(CCN1CCOCC1)c1ccc(N/C(=C2\C(=O)Nc3ccc([N+](=O)[O-])cc32)c2ccccc2)cc1` [Example 337, (Z)-3-{1-[4-(N-(2-morpholinoethyl)-N-propylcarbonyl-amino)-phenylamino]-1-phenyl-methylidene}-5-nitro-2-indolinone] returned a melting point of 228 °C.

`CN(Cc1ccccc1)Cc1ccc(N/C(=C2\C(=O)Nc3ccc([N+](=O)[O-])cc32)c2ccccc2)cc1` [Example 238, (Z)-3-{1-[4-(N-benzyl-N-methyl-aminomethyl)-phenylamino]-1-phenyl-methylidene}-5-nitro-2-indolinone] gave a melting point of 200 to 201 °C.

In turn, `COc1ccc(/C(Nc2ccc(CN3CCCCC3)cc2)=C2/C(=O)Nc3ccc([N+](=O)[O-])cc32)cc1` [Example 441, (Z)-3-[1-(4-piperidinomethyl-phenylamino)-1-(4-methoxyphenyl)-methylidene]-5-nitro-2-indolinone] showed a melting point of 230 to 233 °C.

The molecule `CN(C)Cc1ccc(N/C(=C2\C(=O)Nc3ccc([N+](=O)[O-])cc32)c2cccc(Cl)c2)cc1` [Example 224, (Z)-3-[1-(4-dimethylaminomethyl-phenylamino)-1-(3-chlorophenyl)-methylidene]-5-nitro-2-indolinone] registered a melting point of 274 °C.

`CCCC(=O)N(CCN(C)C)c1ccc(N/C(=C2\C(=O)Nc3ccccc32)c2ccccc2)cc1` [Example 343, (Z)-3-{1-[4-(N-(2-dimethylaminoethyl)-N-propylcarbonyl-amino)-phenylamino]-1-phenyl-methylidene}-2-indolinone] registered a melting point of 268 to 270 °C.

In turn, `CC(C)(C)OC(=O)NCC(=O)NCc1cccc(N/C(=C2\C(=O)Nc3ccc([N+](=O)[O-])cc32)c2ccccc2)c1` [Example 136, (Z)-3-[1-(3-tert.butoxycarbonylaminomethylcarbonylaminomethyl-phenylamino)-1-phenyl-methylidene]-5-nitro-2-indolinone] gave a melting point of 228 °C.

Consider `CN(C(=O)CN1CCCCC1)c1ccc(N/C(=C2\C(=O)Nc3ccccc32)c2ccccc2)cc1` [Example 50, (Z)-3-{1-[4-(N-piperidinomethylcarbonyl-N-methyl-amino)-phenylamino]-1-phenyl-methylidene}-2-indolinone], for which the melting point was 230 to 235 °C (dec.).

The molecule `CN(C)CCS(=O)(=O)N(C)c1ccc(N/C(=C2\C(=O)Nc3ccccc32)c2ccccc2)cc1` [Example 382, (Z)-3-{1-[4-(N-(2-dimethylamino-ethylsulphonyl)-N-methyl-amino)-phenylamino]-1-phenyl-methylidene}-2-indolinone] returned a melting point of 165 to 168 °C.

Molecule `CS(=O)(=O)N(CCN1CCOCC1)c1ccc(N/C(=C2\C(=O)Nc3ccc([N+](=O)[O-])cc32)c2ccccc2)cc1` [Example 203, (Z)-3-{1-[4-(N-(2-morpholinoethyl)-N-methylsulphonyl-amino)-phenylamino]-1-phenyl-methylidene}-5-nitro-2-indolinone] registered a melting point of 255 to 257 °C.

`CN(C(=O)CNCCN1CCOCC1)c1ccc(N/C(=C2\C(=O)Nc3ccccc32)c2ccccc2)cc1` [Example 373, (Z)-3-{1-[4-(N-(2-morpholinoethylaminomethylcarbonyl)-N-methyl-amino)-phenylamino]-1-phenyl-methylidene}-2-indolinone] came in with a melting point of 117 to 119 °C.

The molecule `CCCS(=O)(=O)N(CCN(C)C)c1ccc(N/C(=C2\C(=O)Nc3ccccc32)c2ccccc2)cc1` [Example 311, (Z)-3-{1-[4-(N-(2-dimethylaminoethyl)-N-propylsulphonyl-amino)-phenylamino]-1-phenyl-methylidene}-2-indolinone] returned a melting point of 245 °C.

Regarding `CCCNCc1ccc(N/C(=C2\C(=O)Nc3ccc([N+](=O)[O-])cc32)c2ccccc2)cc1` [Example 162, (Z)-3-[1-(4-propylaminomethyl-phenylamino)-1-phenyl-methylidene]-5-nitro-2-indolinone], the melting point lay in the range of 201 to 202 °C.

On to `CC(=O)NCc1ccc(/C(Nc2ccc(N(C)C(=O)CN(C)C)cc2)=C2/C(=O)Nc3ccccc32)cc1` [Example 431, (Z)-3-{1-[4-(N-dimethylaminomethylcarbonyl-N-methyl-amino)-phenylamino]-1-(4-acetylaminomethyl-phenyl)-methylidene}-2-indolinone], for which the melting point lay in the range of 123 to 125 °C.

With `CC(C)(C)OC(=O)NCC(=O)NCc1ccc(N/C(=C2\C(=O)Nc3ccc([N+](=O)[O-])cc32)c2ccccc2)cc1` [Example 144, (Z)-3-[1-(4-tert.butoxycarbonylaminomethylcarbonylaminomethyl-phenylamino)-1-phenyl-methylidene]-5-nitro-2-indolinone], the melting point was 219 to 221 °C (dec.).

(Values after US6855710B2, “Substituted indolines with an inhibitory effect on various kinases and complexes of CDKs” (Boehringer Ingelheim Pharma KG, priority 1998, dated 2005).)
